Patent US9216972B2, “Tricyclic heterocyclic compounds” (Bristol-Myers Squibb Company, priority 2009, dated 2015)

Assays:
[1] = target: human S1P1 (Homo sapiens (Human), UniProt P21453); assay: S1P1 Binding Assay (33P-S1P radioligand competition); details: membranes from CHO cells expressing human S1P1; 0.03 nM 33P-S1P; rounded to two digits
Description: Membranes were prepared from CHO cells expressing human S1P1. Cells pellets (1×10^8cells/pellet) were suspended in buffer containing 20 mM HEPES, pH 7.5, 50 mM NaCl, 2 mM EDTA and Protease Inhibitor cocktail (Roche), and disrupted on ice using the Polytron homogenizer. The homogenate was centrifuged at 20,000 rpm (48,000 g) and the supernatant was discarded. The membrane pellets were resuspended in buffer containing 50 mM HEPES, pH 7.5, 100 mM NaCl, 1 mM MgCl2, 2 mM EDTA and stored in aliquots at −80° C. after protein concentration determination.
Membranes (2 μg/well) and 0.03 nM final concentration of ^33P-S1P ligand (1 mCi/ml, American Radiolabeled Chemicals) diluted in assay buffer (50 mM HEPES, pH7.4, 5 mM MgCl2, 1 mM CaCl2, 0.5% fatty acid free BSA, 1 mM NaF) were added to the compound plates (384 Falcon v-bottom plate (0.5 μl/well in a 11 point, 3-fold dilution). Binding was performed for 45 minutes at room temperature, terminated by collecting the membranes onto 384-well Millipore FB filter plates, and radioactivity was measured by TopCount. The competition data of the test compounds over a range of concentrations was plotted as percentage inhibition of radioligand specific binding. The IC50 is defined as the concentration of competing ligand needed to reduce specific binding by 50%.

[2] = target: S1P1 (membranes from S1P1/CHO cells) (Homo sapiens (Human), UniProt P21453); assay: Receptor [35S] GTPγS Binding Assay, S1P1; type: biochemical; details: S1P1/CHO cell membranes; rounded to two digits
Sequence of S1P1 (membranes from S1P1/CHO cells) (P21453 whole entry): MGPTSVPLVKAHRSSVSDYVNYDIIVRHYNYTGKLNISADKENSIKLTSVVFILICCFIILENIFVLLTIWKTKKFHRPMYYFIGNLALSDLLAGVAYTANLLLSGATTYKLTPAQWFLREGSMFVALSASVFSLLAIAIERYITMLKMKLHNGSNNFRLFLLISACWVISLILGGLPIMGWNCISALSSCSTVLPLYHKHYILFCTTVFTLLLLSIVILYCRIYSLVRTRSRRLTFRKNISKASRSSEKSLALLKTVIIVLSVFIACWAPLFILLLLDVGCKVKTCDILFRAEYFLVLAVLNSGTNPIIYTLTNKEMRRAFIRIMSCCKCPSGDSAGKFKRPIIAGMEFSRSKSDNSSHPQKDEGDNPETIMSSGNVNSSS
Description: (§1) Receptor [35S] GTPγS Binding Assays
(§2) Compounds were loaded in a 384 Falcon v-bottom plate (0.5 μl/well in a 11 point, 3-fold dilution). Membranes prepared from S1P1/CHO cells or EDG3-Ga15-bla HEK293T cells were added to the compound plate (40 μl/well, final protein 3 μg/well) with multidrop. [^35S]GTP (1250 Ci/mmol, Perkin Elmer) was diluted in assay buffer: 20 mM HEPES, pH7.5, 10 mM MgCl2, 150 mM NaCl, 1 mM EGTA, 1 mM DTT, 10 μM GDP, 0.1% fatty acid free BSA, and 10 μg/ml Saponin to 0.4 nM. 40 μl of the [^35S] GTP solution was added to the compound plate with a final concentration of 0.2 nM. The reaction was kept at room temperature for 45 min. At the end of incubation, all the mixtures in the compound plate were transferred to Millipore 384-well FB filter plates via the Velocity11 Vprep liquid handler. The filter plate was washed with water 4 times by using the manifold Embla plate washer and dried at 60° C. for 45 min. MicroScint 20 scintillation fluid (30 μl) was added to each well for counting on the Packard TopCount. EC50 is defined as the agonist concentration that corresponds to 50% of the Ymax (maximal response) obtained for each individual compound tested. The results in Table B were rounded to two digits.

[3] = target: S1P3 (membranes from EDG3-Ga15-bla HEK293T cells) (Homo sapiens (Human), UniProt Q99500); assay: Receptor [35S] GTPγS Binding Assay, S1P3; type: biochemical; details: EDG3-Ga15-bla HEK293T cell membranes; rounded to two digits
Sequence of S1P3 (membranes from EDG3-Ga15-bla HEK293T cells) (Q99500 whole entry): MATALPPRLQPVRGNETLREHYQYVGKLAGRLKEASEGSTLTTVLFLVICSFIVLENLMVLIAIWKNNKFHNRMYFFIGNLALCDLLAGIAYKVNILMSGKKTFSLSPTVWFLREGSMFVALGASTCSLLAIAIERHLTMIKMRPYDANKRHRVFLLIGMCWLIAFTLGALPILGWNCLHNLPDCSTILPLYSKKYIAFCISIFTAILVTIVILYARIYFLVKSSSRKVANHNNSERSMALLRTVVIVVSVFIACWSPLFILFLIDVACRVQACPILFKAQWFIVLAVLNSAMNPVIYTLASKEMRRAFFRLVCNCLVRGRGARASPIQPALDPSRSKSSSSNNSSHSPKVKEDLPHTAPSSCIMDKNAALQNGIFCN
Description: as §1, §2

[4] = test system: circulating blood lymphocytes; assay: Blood Lymphocyte Reduction Assay (BLR) in Rodents; type: in vivo; details: Lewis rats, oral, versus vehicle (PEG300) group
Description: Blood Lymphocyte Reduction Assay (BLR) in Rodents
Lewis rats were dosed orally with test article (as a solution or suspension in the vehicle) or vehicle alone (polyethylene glycol 300, “PEG300”). Blood was drawn at 4 hr and 24 h by retro-orbital bleeding. Blood lymphocyte counts were determined on an ADVIA 120 Hematology Analyzer (Siemens Healthcare Diagnostics). The results were measured as a reduction in the percentage of circulating lymphocytes as compared to the vehicle treated group at the 4 hr and 24 hr measurement. The results represent the average results of all animals within each treatment group (n=3-4).

Sequence of human S1P1 (P21453 whole entry): as the sequence (P21453 whole entry) above

| IC50 [1] | EC50 [2] | EC50 [3] | SMILES | % Reduction in Lymphocytes at 4 hr. ([4]; dose 1.0 mg/kg) | % Reduction in Lymphocytes at 4 hr. ([4]; dose 3.0 mg/kg) |
| --- | --- | --- | --- | --- | --- |
| 4.1 nM | 1.7 nM | 8500 nM | N#CC1(NC(=O)[C@H](O)c2ccc3c(c2)CCc2c-3noc2-c2noc(-c3ccccc3)c2C(F)(F)F)CC1 (stereo in doubt) [Example 132, N-(1-cyanocyclopropyl)-2-hydroxy-2-(3-(5-phenyl-4-(trifluoromethyl)isoxazol-3-yl)-4,5-dihydronaphtho[1,2-c]isoxazol-7-yl)acetamide] | – | – |
| 5.6 nM | 0.76 nM | 14700 nM | O=C(O)C1CN(Cc2cc3c(cc2F)-c2noc(-c4onc(-c5ccccc5)c4C(F)(F)F)c2CC3)C1 [Example 67] | – | – |
| 22 nM | 49 nM | 4660 nM | O=C(O)[C@H]1CCCN(Cc2ccc3c(c2)CCc2c-3noc2-c2noc(-c3ccccc3)c2C(F)(F)F)C1 [Example 70, (3S)-1-((3-(5-Phenyl-4-(trifluoromethyl)isoxazol-3-yl)-4,5-dihydronaphtho[1,2-c]isoxazol-7-yl)methyl)piperidine-3-carboxylic acid] | – | – |
| 250 nM | 250 nM | > 31000 nM | Oc1ccc2c(c1)CCc1c-2noc1-c1cc(-c2ccccc2Cl)n(-c2ccccc2)n1 [Example 33, 3-(5-(2-Chlorophenyl)-1-phenyl-1H-pyrazol-3-yl)-4,5-dihydronaphtho[1,2-c]isoxazol-7-ol] | – | – |
| 56 nM | 220 nM | > 31000 nM | CCCc1ccc(-c2noc3c2CCc2cc(CN4CC(C(=O)O)C4)ccc2-3)cc1 [Example 20, 1-((3-(4-Propylphenyl)-4,5-dihydronaphtho[2,1-d]isoxazol-7-yl)methyl)azetidine-3-carboxylic acid] | – | – |
| 24 nM | 24 nM | 11000 nM | CC(C)Oc1ccc(-c2onc3c2CCc2cc(CNCCC(=O)O)ccc2-3)cc1C#N [Example 16, 3-((3-(3-Cyano-4-isopropoxyphenyl)-4,5-dihydronaphtho[1,2-c]isoxazol-7-yl)methylamine)propanoic acid] | – | – |
| 57 nM | 57 nM | > 31000 nM | O=C(O)C1CN(Cc2ccc3c(c2)CCc2c-3noc2-c2onc(-c3ccccc3)c2C(F)(F)F)C1 [Example 7, 1-((3-(3-Phenyl-4-(trifluoromethyl)isoxazol-5-yl)-4,5-dihydronaphtho[1,2-c]isoxazol-7-yl)methyl)azetidine-3-carboxylic acid] | – | – |
| 1.3 nM | 1.3 nM | 1300 nM | CCCc1ccc(-c2noc3c2COc2cc(CN4CC(C(=O)O)C4)ccc2-3)cc1 [Example 3, 1-((3-(4-Propylphenyl)-4H-chromeno[3,4-d]isoxazol-7-yl)methyl)azetidine-3-carboxylic acid] | 85% | – |
| 390 nM | 6300 nM | > 31000 nM | CCCc1ccc(-c2onc3c2CCc2cc(OC[C@H](O)CO)ccc2-3)cc1 [Example 12, (R)-3-(3-(4-Propylphenyl)-4,5-dihydronaphtho[1,2-c]isoxazol-7-yloxy)propane-1,2-diol] | – | – |
| 1.6 nM | 0.32 nM | > 31000 nM | O=C(O)C1CN(Cc2ccc3c(c2)OCc2c-3noc2-c2onc(-c3ccccc3)c2C(F)(F)F)C1 [Example 61, 1-((3-(3-phenyl-4-(trifluoromethyl)isoxazol-5-yl)-4H-chromeno[4,3-c]isoxazol-7-yl)methyl)-azetidine-3-carboxylic acid] | – | – |
| 15000 nM | 15000 nM | > 63000 nM | Oc1ccc2c(c1)CCc1c-2noc1-c1cc(-c2ccccc2)on1 [Example 32, 3-(5-Phenylisoxazol-3-yl)-4,5-dihydronaphtho[1,2-c]isoxazol-7-ol] | – | – |
| 22 nM | 40 nM | > 63000 nM | CC(N)(CO)CCc1ccc2c(c1)CCc1c-2noc1-c1noc(-c2ccccc2)c1C(F)(F)F (single isomer, unassigned) [Example 93, 2-amino-2-methyl-4-(3-(5-phenyl-4-(trifluoromethyl)isoxazol-3-yl)-4,5-dihydronaphtho[1,2-c]isoxazol-7-yl)butan-1-ol] | – | – |
| 16 nM | 12 nM | 16200 nM | CC(N)(CCc1ccc2c(c1)CCc1c-2noc1-c1noc(-c2ccccc2)c1C(F)(F)F)C(=O)O (single isomer, unassigned) [Example 94, 2-amino-2-methyl-4-(3-(5-phenyl-4-(trifluoromethyl)isoxazol-3-yl)-4,5-dihydronaphtho[1,2-c]isoxazol-7-yl)butanoic acid] | – | – |
| 600 nM | 410 nM | > 63000 nM | OCC1COCCN1Cc1ccc2c(c1)CCc1c-2noc1-c1noc(-c2ccccc2)c1C(F)(F)F (centres unmarked) [Example 74] | – | – |
| 1600 nM | 1600 nM | > 63000 nM | CC(C)Cc1ccc(-c2onc3c2CCc2cc(O)ccc2-3)cc1 [Example 41, 3-(4-Isobutylphenyl)-4,5-dihydronaphtho[1,2-c]isoxazol-7-ol] | – | – |
| 6.7 nM | 11 nM | > 31000 nM | CC(C)Oc1ccc(-c2onc3c2CCc2cc(CN4CC(C(=O)O)C4)ccc2-3)cc1C(F)(F)F [Example 14, 1-((3-(4-Isopropoxy-3-(trifluoromethyl)phenyl)-4,5-dihydronaphtho[1,2-c]isoxazol-7-yl)methyl)azetidine-3-carboxylic acid] | – | – |
| 980 nM | 980 nM | > 63000 nM | O=C(O)C1CN(Cc2ccc3c(c2)CCc2c-3n[nH]c2-c2onc(-c3ccccc3)c2C(F)(F)F)C1 [Example 22, 1-((3-(3-Phenyl-4-(trifluoromethyl)isoxazol-5-yl)-4,5-dihydro-2H-benzo[g]indazol-7-yl)methyl)azetidine-3-carboxylic acid] | – | – |
| 1.2 nM | 1.2 nM | 8200 nM | CCCc1ccc(-c2onc3c2COc2cc(CN4CC(C(=O)O)C4)ccc2-3)cc1 [Example 2, 1-((3-(4-Propylphenyl)-4H-chromeno[4,3-c]isoxazol-7-yl)methyl)azetidine-3-carboxylic acid] | 65% | – |
| 0.98 nM | 0.73 nM | 3500 nM | CC(C)Cc1ccc(-c2onc3c2CCc2cc(CN4CC(C(=O)O)C4)ccc2-3)cc1C(F)(F)F [Example 23, 1-((3-(4-Isobutyl-3-(trifluoromethyl)phenyl)-4,5-dihydronaphtho[1,2-c]isoxazol-7-yl)methyl)azetidine-3-carboxylic acid] | – | 76% |
| 0.57 nM | 0.74 nM | 1500 nM | CC(C)Cc1onc(-c2onc3c2CCc2cc(CN4CC(C(=O)O)C4)ccc2-3)c1C(F)(F)F [Example 5, 1-((3-(5-Isobutyl-4-(trifluoromethyl)isoxazol-3-yl)-4,5-dihydronaphtho[1,2-c]isoxazol-7-yl)methyl)azetidine-3-carboxylic acid] | 83% | – |
| 0.66 nM | 0.59 nM | 4400 nM | O=C(O)C1CN(Cc2ccc3c(c2)CCc2c-3noc2-c2noc(-c3ccccc3)c2C(F)(F)F)C1 [Example 6, 1-((3-(5-Phenyl-4-(trifluoromethyl)isoxazol-3-yl)-4,5-dihydronaphtho[1,2-c]isoxazol-7-yl)methyl)azetidine-3-carboxylic acid] | 86% | – |
| 3200 nM | 3200 nM | > 31000 nM | OCc1ccc2c(c1)CCc1c-2noc1-c1cccc(C(F)(F)F)c1 [Example 24, (3-(3-(Trifluoromethyl)phenyl)-4,5-dihydronaphtho[1,2-c]isoxazol-7-yl)methanol] | – | – |
